{"source": "PubChem BioAssay AID651854", "about": "(Broad Institute, 2012)", "note": "Activity calls are given as the source filed them. No rule for the calls is given here."}
{"system": "V. cholerae BH1578 lux reporter, luminescence, 6 h", "test": "inducers of V. cholerae light production, dose response, BH1578, luxS and cqsA deficient, dry powder (AID 651854)", "settings": "not given"}
{"smiles": "COc1ccc(-c2ccc([C@H]3[C@@H](C#N)N(C(=O)NC4CCCCC4)[C@H]3CO)cc2)cc1", "AC40": "> 35 µM (inactive)"}
{"smiles": "C[C@H](CO)N1C[C@H](C)[C@@H](CN(C)S(=O)(=O)c2ccccc2)Oc2c(NC(=O)Nc3ccc4c(c3)OCO4)cccc2C1=O", "AC40": "> 16 µM (inactive)"}
{"smiles": "CCCn1nnnc1NCc1ccc(N2CCCC2)cc1", "AC40": "< 0.135 µM"}
{"smiles": "CCn1nc(NC(=O)c2ccco2)c2cc3ccccc3nc21", "AC40": "5.43 µM"}
{"smiles": "Cn1c(C(=O)NC2CCCCC2)cc2c(=O)n(C)c3ccccc3c21", "AC40": "> 35 µM (inactive)"}
{"smiles": "Cc1cccc2cc3c(NC(=O)c4ccco4)nn(C)c3nc12", "AC40": "< 0.135 µM"}
{"smiles": "CCn1nnnc1NCc1ccc(N2CCCC2)cc1", "AC40": "< 0.135 µM"}
{"smiles": "Cc1cc(C)c2c(NC(=O)c3ccco3)nn(C)c2n1", "AC40": "> 35 µM (inactive)"}
{"smiles": "Cc1ccc2cc3c(NC(=O)C4CCCCC4)nn(C)c3nc2c1", "AC40": "< 0.135 µM"}
{"smiles": "CC(C)COC(=O)CNc1n[nH]c(=S)[nH]c1=O", "AC40": "> 35 µM (inactive)"}
{"smiles": "CCn1nc(NC(=O)c2ccco2)c2cc3ccc(C)cc3nc21", "AC40": "> 35 µM (inactive)"}
{"smiles": "O=C(NC1CCCCC1)C(=O)c1c[nH]c2ccccc12", "AC40": "> 35 µM (inactive)"}
{"system": "not listed separately", "test": "inducers of V. cholerae light production, dose response, BH1578, luxS and cqsA deficient, dry powder (AID 651854)", "settings": "V. cholerae BH1578 lux reporter, luminescence, 6 h; at 30 µM (top of the series)"}
{"smiles": "CC(C)NC(=O)Nc1ccc2c(c1)C(=O)N([C@H](C)CO)C[C@H](C)[C@@H](CN(C)Cc1ccncc1)OCCCC[C@@H](C)O2", "light induction": "3.45% (inactive)"}
{"system": "not listed separately", "test": "inducers of V. cholerae light production, dose response, BH1578, luxS and cqsA deficient, dry powder (AID 651854)", "settings": "V. cholerae BH1578 lux reporter, luminescence, 6 h; at 35 µM (top of the series)"}
{"smiles": "Cn1nc(NC(=O)c2ccco2)c2c(F)cccc21", "light induction": "-0.824% (inactive)"}
{"smiles": "CO[C@H]1CN(C)C(=O)c2cc(NS(=O)(=O)c3c(C)noc3C)ccc2OC[C@H](C)NC[C@@H]1C", "light induction": "0% (inactive)"}
{"smiles": "C[C@H]1CCCCO[C@H](CN(C)C(=O)c2ccccc2)[C@@H](C)CN([C@@H](C)CO)C(=O)c2cc(NC(=O)c3ccccc3)ccc2O1", "light induction": "-0.733% (inactive)"}
{"smiles": "CC(C)c1cccc(NC(=O)C[C@H]2CC[C@H]3[C@@H](COc4ccc(NC(=O)c5ccc(C#N)cc5)cc4C(=O)N3C)O2)c1", "light induction": "0.322% (inactive)"}
{"smiles": "O=[N+]([O-])c1ccc(N(CCO)CCO)c2c1no[n+]2[O-]", "light induction": "9.14% (inactive)"}
{"smiles": "CO[C@@H]1CN(C)C(=O)c2cc(NC(=O)C3CC3)ccc2OC[C@H](C)N(C(=O)NC(C)C)C[C@H]1C", "light induction": "1.05% (inactive)"}
{"smiles": "C[C@H](CO)N1C[C@H](C)[C@H](CN(C)C(=O)Cc2ccncc2)Oc2cc(C3=CCCCC3)ccc2S1(=O)=O", "light induction": "0.158% (inactive)"}
{"smiles": "COc1ccc(-c2ccc([C@@H]3[C@H](C#N)N(C(=O)NC4CCCCC4)[C@H]3CO)cc2)cc1", "light induction": "-0.497% (inactive)"}
{"smiles": "CCC(=O)Nc1nn(C)c2nc3cc(C)ccc3cc12", "light induction": "-0.824% (inactive)"}
{"smiles": "CO[C@H]1CN(C)C(=O)c2cccc(C#N)c2OCC[C@@H]2CC[C@@H](OC)[C@@H](CN(C)C(=O)[C@H]1C)O2", "light induction": "5.31% (inactive)"}
{"smiles": "CCOC(=O)c1cc2c(c(-c3cccc(Br)c3)n1)[C@@H](CCO)N(C(=O)NC(C)C)C2", "light induction": "0.322% (inactive)"}
{"smiles": "Cc1ccc2cc3c(NC(=O)c4ccccn4)nn(C)c3nc2c1", "light induction": "-0.663% (inactive)"}
{"smiles": "Cc1noc(C)c1NC(=O)N(C)C[C@@H]1Oc2ccc(NC(=O)CCC(F)(F)F)cc2C(=O)N([C@@H](C)CO)C[C@@H]1C", "light induction": "0.322% (inactive)"}
{"smiles": "CN1C(=O)c2cc(NS(C)(=O)=O)ccc2OC[C@@H]2O[C@H](CC(=O)NCc3ccc(-c4ccccc4)cc3)CC[C@@H]21", "light induction": "0.313% (inactive)"}
{"smiles": "O=C(O)C[C@@H]1CC[C@H](NC(=O)c2ccncc2)[C@@H](CO)O1", "light induction": "0.322% (inactive)"}
{"smiles": "O=[N+]([O-])c1ccc(N2CCOCC2)c2c1no[n+]2[O-]", "light induction": "0.322% (inactive)"}
{"smiles": "C[C@H](CO)N1C[C@H](C)[C@@H](CN(C)S(=O)(=O)c2ccccc2F)Oc2cc(-c3ccncc3)ccc2S1(=O)=O", "light induction": "0% (inactive)"}
{"smiles": "Cc1ccc2cc3c(NC(=O)c4ccco4)nn(CC(C)C)c3nc2c1", "light induction": "2.93% (inactive)"}
{"smiles": "C[C@H]1CN([C@@H](C)CO)C(=O)Cc2cc(NS(C)(=O)=O)ccc2O[C@H]1CN(C)Cc1ccc(-c2ccccc2)cc1", "light induction": "-0.148% (inactive)"}
{"smiles": "CCCC#Cc1cnc2c(c1)C(=O)N([C@H](C)CO)C[C@H](C)[C@H](CN(C)C(=O)CCN1CCCCC1)O2", "light induction": "-0.148% (inactive)"}
{"smiles": "C[C@@H]1CN([C@@H](C)CO)S(=O)(=O)c2ccc(-c3ccncc3)cc2O[C@@H]1CN(C)S(=O)(=O)c1ccccc1F", "light induction": "0.546% (inactive)"}
{"smiles": "C[C@H](NC(=O)C[C@@H]1CC[C@H]2[C@H](COc3ccc(NS(=O)(=O)c4ccc(Cl)cc4)cc3C(=O)N2C)O1)c1ccccc1", "light induction": "0.158% (inactive)"}
{"smiles": "COCC(=O)N[C@@H]1C=C[C@H](CC(=O)N2CCCCC2)O[C@@H]1CO", "light induction": "0.262% (inactive)"}
{"smiles": "CO[C@@H]1CC[C@@H]2CCOc3ccc(C#N)cc3C(=O)N(C)C[C@H](C)C(=O)N(C)C[C@H]1O2", "light induction": "0.497% (inactive)"}
{"smiles": "O=C(C[C@@H]1CC[C@@H]2[C@H](COC[C@H](O)CN2Cc2ccc(C(F)(F)F)cc2)O1)N1CCc2ccccc2C1", "light induction": "0.313% (inactive)"}
{"smiles": "CCn1nnc(NCc2ccc(N3CCCC3)cc2)n1", "light induction": "10.7% (inactive)"}
{"smiles": "O=C(N[C@@H]1C=C[C@H](CC(=O)N2CCCCC2)O[C@H]1CO)c1ccc2c(c1)OCO2", "light induction": "0% (inactive)"}
{"smiles": "COc1ccc(CNC(=O)N(C)C[C@@H]2OCc3ccccc3-c3c(n(C)c4ccccc34)C(=O)N([C@@H](C)CO)C[C@H]2C)cc1", "light induction": "1.27% (inactive)"}
{"smiles": "C[C@H](CO)N1C[C@H](C)[C@@H](CN(C)C(=O)NC2CCCCC2)OCc2ccccc2-c2c(n(C)c3ccccc23)C1=O", "light induction": "0% (inactive)"}
{"smiles": "COc1ccc(C#Cc2ccc3c(c2)O[C@H](CN(C)C(=O)CN2CCOCC2)[C@@H](C)CN([C@@H](C)CO)S3(=O)=O)cc1", "light induction": "0% (inactive)"}
{"smiles": "Cc1ccccc1-c1ccc2c(c1)O[C@H](CN(C)Cc1ccc(C(=O)O)cc1)[C@@H](C)CN([C@H](C)CO)S2(=O)=O", "light induction": "-0.148% (inactive)"}
{"smiles": "CO[C@@H]1CC[C@H]2CCOc3ccc(C#N)cc3C(=O)N(C)[C@H](C)C(=O)N(C)C[C@@H]1O2", "light induction": "0.313% (inactive)"}
{"smiles": "COc1ccc(C#Cc2cnc3c(c2)C(=O)N([C@@H](C)CO)C[C@H](C)[C@H](CN(C)C(=O)CC2CC2)O3)cc1", "light induction": "0% (inactive)"}
{"smiles": "CCCN(C)C[C@@H]1Oc2cc(C#Cc3cccc(OC)c3)ccc2S(=O)(=O)N([C@@H](C)CO)C[C@@H]1C", "light induction": "-0.148% (inactive)"}
{"smiles": "Cc1noc(C)c1NC(=O)N(C)C[C@H]1Oc2ccc(NC(=O)CCC(F)(F)F)cc2C(=O)N([C@H](C)CO)C[C@H]1C", "light induction": "0% (inactive)"}
{"smiles": "C[C@H]1CN([C@@H](C)CO)C(=O)c2cc(NC(=O)CCC(F)(F)F)ccc2O[C@H]1CN(C)Cc1ccc(Cl)c(Cl)c1", "light induction": "1.05% (inactive)"}
{"smiles": "Cc1ccc2cc3c(NC(=O)c4ccccc4)nn(C)c3nc2c1", "light induction": "0.503% (inactive)"}
{"smiles": "CC=Cc1ccc2n(c1=O)C[C@@H]1[C@@H](CO)[C@H](C(=O)NCC)N(Cc3ccccc3Cl)[C@H]21", "note": "(mixture of isomers)", "light induction": "0.694% (inactive)"}
